Counter-ions that a name gives are not always drawn.
Tests used:
[1] = Balb/c mouse pharmacokinetics after oral (PO) dosing; assay type: in vivo; details: male, plasma
Procedure: Compounds were formulated in 5% DMSO, 40% PEG-400, 55% Milli-Q water at a concentration of 0.5 mg/mL for 5 mg/kg and 3 mg/mL for 30 mg/kg PO dosing. […] Blood was sampled at various timepoints and plasma isolated. 10 μL of plasma with 5 μL of blank Balb/c mouse plasma were added to 200 μL of acetonitrile containing IS mixture. The samples were vortexed for 30 s. After centrifugation at 4 degree Celsius, 3900 rpm for 15 min, the supernatant was diluted 3 times with water. 20 μL of diluted supernatant was injected into the LC/MS/MS system for quantitative analysis and concentration of analyte determined by comparison with matrix matched standard curve. WinNonlin (Phoenix™, version 8.3) or other similar software was used for pharmacokinetic calculations.

BRD4 BD1 = biological target: T1, BRD4 BD1 (Homo sapiens, UniProt O60885); experiment: NanoBRET bromodomain assay, BRD4 BD1; assay type: cell-based; details: HEK293 cells transfected with NanoLuc-BRD4-BD1
T1 construct: HEK293 cells were transfected using NanoLuc-BRD4-BD1 or NanoLuc-BRD4-BD2 fusion vectors; host or cells: HEK293
Procedure: (§1) HEK293 cells were transfected using NanoLuc-BRD4-BD1 or NanoLuc-BRD4-BD2 fusion vectors and incubated at 37° C. in an atmosphere of 5% CO2 for 20-24 hours. The transfected cells were then dispensed into 96-well plates using 90 μl cell suspension per well containing 2×10^5 cells/ml in Opti-MEM and 1x final concentration of tracer. 90 μl per well of cell suspension without tracer was also dispensed into at least 3 wells as “No tracer control samples” for background correction. Serially diluted test compounds were prepared at 1000× concentration in DMSO and further diluted to 10× concentration in Opti-MEM. 10 μl per well of the serially diluted 10× test compound was added to the 96-well plates containing cells with 1x tracer. Plates were then incubated at 37° C.+5% C02 incubator for 2 hours. Immediately prior to BRET measurements, a 3x solution consisting of 1:166 dilution of Nano-Glo® Substrate plus a 1:500 dilution of Extracellular NanoLuc Inhibitor in Opti-MEM was prepared and 50 μl per well was added to the cells. Donor emission (450 nm) and acceptor emission (610 nm) were measured using PHERAstar (BMG LabTech). For data analysis, the raw BRET ratio was generated and converted to milliBRET units with background correction using the formula: [(Acceptorsample/Donorsample)−(Acceptorno tracer control/Donorno tracer control)]×1000. The mBU data was plotted as a function of compound concentration and IC50s for BRET assay were determined by nonlinear regression analysis of concentration response curves using the GraphPad Prism software.

BRD4 BD2 = biological target: T2, BRD4 BD2 (Homo sapiens, UniProt O60885); experiment: NanoBRET bromodomain assay, BRD4 BD2; assay type: cell-based; details: for Fold selectivity BRD4 BD1/BD2: IC50 BD1/IC50 BD2; for IC50: NanoBRET, HEK293 cells transfected with NanoLuc-BRD4-BD2
T2 construct: HEK293 cells were transfected using NanoLuc-BRD4-BD1 or NanoLuc-BRD4-BD2 fusion vectors; host or cells: HEK293
Procedure: as §1
Fold Selectivity Calculated (IC50 BD1/IC50 BD2).

[2] = Intrinsic clearance in rat liver microsomes; assay type: in vitro ADME; details: pH 7.4, NADPH, read-out: Rat Microsomal Stability T½
Procedure: A 50 mM stock solution (in DMSO) was prepared for the compound. From the stock solution, a working solution of 0.5 mM was prepared by diluting the compound in DMSO. This concentration of working solution was prepared considering a final concentration of 1 uM with 0.1% DMSO. The compound (1 uL of working solution) was spiked in PBS with pH 7.4 (22 uL) at a concentration of 1 uM. Subsequently, 110 uL of 10 mM NADPH was added (as a co-factor). The sample was incubated at 37° C. for 15 min. Following this, pre-warmed rat liver microsomes (27.5 uL; final protein conc. 0.5 mg/mL) were added. The samples were then incubated at 37° C. Aliquots of samples were withdrawn at 0, 5, 15, 30, 45 and 60 min. The reaction was stopped by using chilled acetonitrile containing internal standard. The samples were centrifuged and the supernatants analysed by LC-MS/MS. The percent compound remaining at each time point was calculated with respect to that of the 0 min sample. The data were then analysed to calculate half-life. Note that control samples were run without NADPH and blank samples were prepared using DMSO without the test Compound.

SMILES | Cmax ([1]; 30 mg/kg, Individual) [ng/mL] | bioavailability ([1]; 30 mg/kg, Individual) [%] | IC50 (BRD4 BD1) [nM] | Fold selectivity BRD4 BD1/BD2 (BRD4 BD2) | IC50 (BRD4 BD2) [nM] | Cmax ([1]; 5 mg/kg, Casette) [ng/mL] | bioavailability ([1]; 5 mg/kg, Casette) [%] | half-life at 1 uM [2] [h]
Cc1cc(-c2cc3c(-c4cc(=O)n(C5CC5)cc4Oc4c(C)cccc4C)cn(C)c(=O)c3[nH]2)cc(C)n1 [Example 59, 1-cyclopropyl-5-(2,6-dimethylphenoxy)-4-[2-(2,6-dimethylpyridin-4-yl)-6-methyl-7-oxo-1H-pyrrolo[2,3-c]pyridin-4-yl]pyridin-2-one] | 5460 | 100 | > 1000 | xxx (Fold >200) | ≤ 50 | – | – | –
Cc1cccc(C)c1Oc1cn(C)c(=O)cc1-c1cn(C)c(=O)c2[nH]c(-c3ccc(=O)n(C)c3)cc12 [Example 51, 5-(2,6-dimethylphenoxy)-1-methyl-4-[6-methyl-2-(1-methyl-6-oxopyridin-3-yl)-7-oxo-1H-pyrrolo[2,3-c]pyridin-4-yl]pyridin-2-one] | – | – | > 1000 | xx (Fold >50 and ≤200) | 50 to 200 | 24.4 | 6.83 | –
Cc1cc(-c2cc3c(-c4cc(=O)n(C)cc4-c4ccccc4)cn(C)c(=O)c3[nH]2)n(C)n1 [Example 60, 2-(1,3-dimethyl-1H-pyrazol-5-yl)-6-methyl-4-(1-methyl-2-oxo-5-phenyl-1,2-dihydropyridin-4-yl)-1,6-dihydro-7H-pyrrolo[2,3-c] pyridin-7-one] | – | – | > 1000 | xxx (Fold >200) | ≤ 50 | 631 | 59.9 | –
Cc1cc(-c2cc3c(-c4cc(=O)n(C)cc4-c4ccccc4)cn(C)c(=O)c3[nH]2)cc(C)n1 [Example 62, 4-[2-(2,6-dimethylpyridin-4-yl)-6-methyl-7-oxo-1H-pyrrolo[2,3-c]pyridin-4-yl]-1-methyl-5-phenylpyridin-2-one] | – | – | 50 to 500 | xxx (Fold >200) | ≤ 50 | 1290 | 88.7 | –
Cn1cc(-c2ccccc2)c(-c2cn(C)c(=O)c3[nH]c(-c4ccccc4)cc23)cc1=O [Example 63, 1-methyl-4-{6-methyl-7-oxo-2-phenyl-1H-pyrrolo[2,3-c]pyridin-4-yl}-5-phenylpyridin-2-one] | – | – | > 1000 | xxx (Fold >200) | ≤ 50 | 1590 | 86.5 | –
Cc1cccc(C)c1Oc1cn(C)c(=O)cc1-c1cn(C)c(=O)c2[nH]c(-c3ccc(F)cc3F)cc12 [Example 47, 2-(2,4-difluorophenyl)-4-(5-(2,6-dimethylphenoxy)-1-methyl-2-oxo-1,2-dihydropyridin-4-yl)-6-methyl-1,6-dihydro-7H-pyrrolo[2,3-c] pyridin-7-one] | – | – | > 1000 | xxx (Fold >200) | ≤ 50 | 718 | 100 | –
Cc1cccc(C)c1Oc1cn(C)c(=O)cc1-c1cn(C)c(=O)c2[nH]c(-c3cn(C4COC4)nc3C)cc12 [Example 64, 4-(5-(2,6-dimethylphenoxy)-1-methyl-2-oxo-1,2-dihydropyridin-4-yl)-6-methyl-2-(3-methyl-1-(oxetan-3-yl)-1H-pyrazol-4-yl)-1,6-dihydro-7H-pyrrolo[2,3-c]pyridin-7-one] | 1010 | 12.5 | 500 to 1000 | xx (Fold >50 and ≤200) | ≤ 50 | – | – | –
Cc1cccc(C)c1Oc1cn(C)c(=O)cc1-c1cn(C)c(=O)c2[nH]c(-c3ccc(C(F)(F)F)cc3)cc12 [Example 28, 4-(5-(2,6-dimethylphenoxy)-1-methyl-2-oxo-1,2-dihydropyridin-4-yl)-6-methyl-2-(4-(trifluoromethyl)phenyl)-1,6-dihydro-7H-pyrrolo[2,3-c] pyridin-7-one] | – | – | > 1000 | xx (Fold >50 and ≤200) | 50 to 200 | – | – | > 1
Cc1cccc(C)c1Oc1cn(C)c(=O)cc1-c1cn(C)c(=O)c2[nH]c(-c3ccn(C)c3)cc12 [Example 13, 4-(5-(2,6-dimethylphenoxy)-1-methyl-2-oxo-1,2-dihydropyridin-4-yl)-6-methyl-2-(1-methyl-1H-pyrrol-3-yl)-1,6-dihydro-7H-pyrrolo[2,3-c] pyridin-7-one] | – | – | > 1000 | xxx (Fold >200) | ≤ 50 | – | – | > 1
Cc1cccc(C)c1Oc1cn(C)c(=O)cc1-c1cn(C)c(=O)c2[nH]c(-c3cnn(C)c3C)cc12 [Example 36, 2-(1,5-dimethyl-1H-pyrazol-4-yl)-4-(5-(2,6-dimethylphenoxy)-1-methyl-2-oxo-1,2-dihydropyridin-4-yl)-6-methyl-1,6-dihydro-7H-pyrrolo[2,3-c] pyridin-7-one] | – | – | > 1000 | xx (Fold >50 and ≤200) | ≤ 50 | – | – | > 1
Cc1ccc(C(F)(F)F)cc1-c1cc2c(-c3cc(=O)n(C)cc3Oc3c(C)cccc3C)cn(C)c(=O)c2[nH]1 [Example 21, 4-(5-(2,6-dimethylphenoxy)-1-methyl-2-oxo-1,2-dihydropyridin-4-yl)-6-methyl-2-(2-methyl-5-(trifluoromethyl)phenyl)-1,6-dihydro-7H-pyrrolo[2,3-c] pyridin-7-one] | – | – | > 1000 | — (Fold ≥0 and ≤2) | > 1000 | – | – | > 1
Cc1cccc(C)c1Oc1cn(C)c(=O)cc1-c1cn(C)c(=O)c2[nH]c(-c3ccncc3)cc12 [Example 10, 4-(5-(2,6-dimethylphenoxy)-1-methyl-2-oxo-1,2-dihydropyridin-4-yl)-6-methyl-2-(pyridin-4-yl)-1,6-dihydro-7H-pyrrolo[2,3-c] pyridin-7-one] | – | – | > 1000 | xxx (Fold >200) | ≤ 50 | – | – | 0.733
Cc1cccc(C)c1Oc1cn(C)c(=O)cc1-c1cn(C)c(=O)c2[nH]c(-c3cccnc3)cc12 [Example 9, 4-(5-(2,6-dimethylphenoxy)-1-methyl-2-oxo-1,2-dihydropyridin-4-yl)-6-methyl-2-(pyridin-3-yi)-1,6-dihydro-7H-pyrrolo[2,3-c] pyridin-7-one.TFA] | – | – | > 1000 | x (Fold >2 and ≤50) | 200 to 1000 | – | – | > 1
Cc1cccc(C)c1Oc1cn(C)c(=O)cc1-c1cn(C)c(=O)c2[nH]c(-c3cn(C(C)C)nc3C)cc12 [Example 6, 4-(5-(2,6-dimethylphenoxy)-1-methyl-2-oxo-1,2-dihydropyridin-4-yl)-2-(1-isopropyl-3-methyl-1H-pyrazol-4-yl)-6-methyl-1,6-dihydro-7H-pyrrolo[2,3-c]pyridin-7-one] | – | – | 500 to 1000 | xxx (Fold >200) | ≤ 50 | – | – | > 1
Cc1cccc(C)c1Oc1cn(C)c(=O)cc1-c1cn(C)c(=O)c2[nH]c(-c3ccc(C(N)=O)cc3)cc12 [Example 29, 4-(4-(5-(2,6-dimethylphenoxy)-1-methyl-2-oxo-1,2-dihydropyridin-4-yl)-6-methyl-7-oxo-6,7-dihydro-1H-pyrrolo[2,3-c]pyridin-2-yl) benzamide] | – | – | > 1000 | xxx (Fold >200) | ≤ 50 | – | – | > 1

— patent US20240308998A1, “PYRROLOPYRIDONE DERIVATIVES USEFUL IN THE TREATMENT OF CANCER” (Tay Therapeutics Limited, priority 2021, published 2024)
